# Laboratory results: EP1328811B1, “HCV MOSAIC ANTIGEN COMPOSITION” (MedMira Inc., priority 2000, dated 2005)
# System: anti-HCV antibodies
# Test: Immunofiltration dotting assay of individual peptide-carrier conjugates (epitope mapping, Example 4)
# Type: binding, human
# Conditions: for reactivity with HCV positive samples / reactivity with positive HCV samples: HCV positive specimens n=10; for reactivity with positive HCV samples: peptide conjugates, independently of the carrier used (BSA, HSA, KLH), peptide-carrier mass ratio 0.5; for reactivity with negative HCV samples: peptide-carrier conjugates, HCV negative specimens n=10
# From the text: Several versions of antibody capture assay formats are available which differ mainly according to the type of solid supports employed and the detection technology used to determine the presence of immunological complexes formed by antigen-antibody recognition and binding. A commercially available immunofiltration dotting assay procedure (MedMira Inc., Halifax, N.S.) was used to test for immunoreactivity of the peptide-carrier conjugates based on colloidal gold detection using a nitrocellulose membrane as a solid support and is described below.
# The HCV positive/negative specimens used to evaluate the mosaic antigen composition were provided by Dr. Spencer Lee (Director of Virology/Immunology, Microbiology Division, Department of Pathology and Laboratory Medicine) of the Queen Elizabeth II Health Sciences Center (Halifax, Nova Scotia). All specimens were tested with the Abbott's HCV test using the Axsym system platform. The Riba-II (Chiron) immunoblot assay was used as a confirmation test.
# The maleimide-activated carrier molecules (KLH, BSA and HSA) were purchased from Pierce (Rockford, IL) and conjugated with cysteine containing peptides using a peptide-carrier mass ratio of 0.5 except mentioned otherwise.
# Typically, the conjugates were passively adsorbed at a concentration of 1 mg/ml (bicarbonate buffer, 50 mM, pH 9.6) by applying one microliter of peptide-carrier conjugate on the nitrocellulose membrane. The antigen dotted membrane was air-dried. Before the test, the membrane was primed with 3 drops of washing buffer (Tris/phosphate/sodium chloride, pH 9.6 containing 0.25% Tween®20). The tests were performed as follows.
# One drop of specimen serum was added to the membrane and after complete absorption of the sample, the membrane was washed with 4 drops of washing buffer. Four drops of protein A/colloidal gold solution (concentration corresponding to an optical density of 2 at 520 nm) was added to the membrane and the membrane was washed with 3 more drops of washing solution. The results were recorded visually within 5 minutes after completion of the test.
# The identification of major linear epitopes was carried out using selected peptides corresponding to various regions of the HCV polyprotein and panels of well-characterized HCV positive and negative human sera. Additionally, a comparison of different carrier components was made based on a sensitivity/specificity assessment of various peptide-carrier conjugates.
# Peptides were individually conjugated to three different carriers (BSA, HSA and KLH) and adsorbed passively on a nitrocellulose membrane support. Tests were performed by immunofiltration dotting assay format using a,commercially available flow-through assay platform (MedMira Inc., Halifax, N.S.).
Sequence,reactivity with HCV positive samples (peptide conjugated with BSA),reactivity with HCV positive samples (peptide conjugated with HSA),reactivity with HCV positive samples (peptide conjugated with KLH),reactivity with positive HCV samples,reactivity with negative HCV samples
"ATRKTSERSQPRGRRQPI [MDL-5, HCV core region antigenic peptide]",reactive with most HCV positive samples,unreactive,reactive with most HCV positive samples,–,–
"GPRLGVRATRKTSERSQP [MDL-4, HCV core region antigenic peptide]",marginally reactive or unreactive,marginally reactive or unreactive,reactive with most HCV positive samples,–,–
"GQIVGGVYLLPRRGP [MDL-3, HCV core region antigenic peptide]",–,–,–,more consistent reactivity,No significant reactivity
"KTKRNTNRRPQDVKF [MDL-2, HCV core region antigenic peptide]",–,–,–,more consistent reactivity,No significant reactivity
"MSTNPKPQRKTKRNTNRR [MDL-1, HCV core region antigenic peptide]",–,–,–,more consistent reactivity,No significant reactivity
PKARQPEGRAWAQPG [MDL-6],reactive with most HCV positive samples,reactive with most HCV positive samples,poorly reactive,–,–
